The record followed here is US10946074B2, “GLP-1 derivatives and uses thereof” (Novo Nordisk A/S, priority 2016, dated 2021).

Where two headings read alike, the source gives them in different places. Starred links: 1 amine or outer side, 2 acyl side, 3 side chain; linkers in the order of their positions; H or OH if unused. Residues, ends and D or L forms follow the SMILES beside them. Groups on a side chain read outwards from the residue. *: point of attachment. γGlu = O=C(O)[C@H](CCC(=O)[*:2])N[*:1]; C14 diacid = O=C(O)CCCCCCCCCCCCC(=O)*; AEEA = NCCOCCOCC(=O)O

Series [1] addresses T1, human GLP-1 receptor (Homo sapiens, UniProt P43220).
T1 construct: expressed in transfected cells; host or cells: membranes of BHK cells (parent BHKTS13), clone FCW467-12A
The series can be described thus: GLP-1 receptor binding, competitive binding assay with 125I-GLP-1 on isolated membranes (SPA).
Description: The receptor binding is reported as the concentration at which half of the labelled ligand is displaced from the receptor, the IC50 value.
Buffer 1 consisted of 20 mM Na-HEPES plus 10 mM EDTA and pH was adjusted to 7.4. Buffer 2 consisted of 20 mM Na-HEPES plus 0.1 mM EDTA and pH was adjusted to 7.4. Assay buffer consisted of 50 mM HEPES supplemented with 5 mM EGTA, 5 mM MgCl2, 0.005% w/v Tween 20 and pH was adjusted to 7.4. An 8% albumin stock consisted of HSA dissolved at 8% (w/v) in assay buffer. An 0.02% albumin stock consisted of HSA dissolved at 0.02% (w/v) in assay buffer.
To make a membrane preparation the cells were grown to approximately 80% confluence. The cells were washed twice in phosphate-buffered saline and harvested. The cells were pelleted using a brief centrifugation and the cell pellet was kept on ice. The cell pellet was homogenised with ULTRA-THURRAX™ dispersing instrument for 20-30 seconds in a suitable amount of buffer 1 (e.g., 10 ml). The homogenate was centrifuged for 15 minutes. The pellet was re-suspended (homogenised) in 10 ml buffer 2 and centrifuged. This step was repeated once more. The resulting pellet was re-suspended in buffer 2 and the protein concentration was determined. The membranes were aliquoted and stored at minus 80° C.
For the receptor binding assay in the presence of low HSA (0.005% (w/v)) 50 μl of the assay buffer was added to each well of an assay plate. Assay continued with step 3.
For the receptor binding assay in the presence of high HSA (2% (w/v)) 50 μl of the 8% (w/v) albumin stock was added to each well of an assay plate. Assay continued with step 3.
Cell membrane aliquots were thawed and diluted to their working concentration. Fifty μl were added to each well in the assay plate.
WGA SPA beads were suspended in assay buffer at 20 mg/ml. The suspension was diluted to 10 mg/ml in assay buffer just prior to addition to the assay plate. Fifty μl were added to each well in the assay plate.
A 25 μl aliquot was reserved for measuring total counts/well.
The assay plate was incubated for 2 h at 30° C.
The assay plate was centrifuged for 10 min.
The assay plate was read in a Packard TopCount NXT instrument.
Individual replicates were analysed using non-linear regression in GraphPad Prism. IC50 values were calculated by the software and reported in nM. A minimum of two replicates was measured for each sample. The reported values are averages of all of the measured values for each compound.

For series [2], the target named is T1, human GLP-1 receptor. The series can be described thus: In vitro potency, CRE luciferase reporter gene assay in BHK cells expressing the human GLP-1 receptor. The format is cell-based. The note with it: 3 h, 0% HSA, average of at least three replicates. The procedure: When assay incubation is completed the luciferase substrate (luciferin) is added and the enzyme converts luciferin to oxyluciferin to produce bioluminescence. The luminescence is measured as the readout for the assay.
The cells were cultured at 5% CO2 in cell culture medium. They were aliquoted and stored in liquid nitrogen. Before each assay an aliquot was taken up and washed twice in PBS before being suspended at the desired concentration in the assay specific buffer. For 96-well plates the suspension was made to give a final concentration of 5×10^3 cells/well.
Assay medium consisted of DMEM w/o phenol red, 10 mM Hepes and 1× Glutamax. The assay buffer consisted of 2% w/v ovalbumin and 0.2% v/v Pluronic F-68 in assay medium.
3) Cells were counted and adjusted to 5×10^3 cells/50 μl (1×10^5 cells/ml) in assay medium. A 50 μl aliquot of cells was transferred to each well in the assay plate.
4) Stocks of the test compounds and reference compounds were diluted to a concentration of 0.2 μM in assay buffer. […] Compounds were tested at the following final concentrations: 1×10^−7 M, 1×10^−8 M; 1×10^−9 M, 1×10^−10 M, 1×10^−11 M, 1×10^−12 M, 1×10^−13 M, and 1×10^−14 M. 6) The assay plate was incubated for 3 h in a 5% CO2 incubator at 37° C. […] 8) A 100 μl aliquot of steadylite plus reagent was added to each well of the assay plate. 9) Each assay plate was covered with aluminum foil to protect it from light and shaken for 30 min at room temperature. 10) Each assay plate was read in a BioTek Synergy 2 Multi-Mode Reader. Calculations and Results
The data from the BioTek Synergy 2 Multi-Mode Reader were transferred to GraphPad Prism software. The software performs a non-linear regression (log(agonist) vs. response (three parameters)).
A minimum of three replicates were measured for each sample. The reported EC50 values are averages of the measured values for each compound.
A general note: A reporter such as luciferase makes a cellular process visible.

Series [3] addresses T2, DPP-IV (Homo sapiens, UniProt P27487).
T2 construct: purchased R & D systems
Put plainly: In vitro DPP-IV stability (incubation with DPP-IV, LC-MS of non-degraded peptide). In kind it is in vitro ADME. As to conditions: 10 μM peptide, DPP-IV 2 μg/ml, 37° C., samples up to 180 min.
Description: The peptides are incubated in vitro in buffer with DPP-IV, samples are taken at regular intervals, the DPP-IV enzyme is inactivated to stop further degradation, and the amount of non-degraded peptide in the samples is determined using LC-MS.
Buffer A is a HEPES buffer (Gibco by Life Science, NY, USA) to which 0.005% (v/v) Tween20® Sigma-Aldrich, USA) and 0.001% (w/v) BSA (Sigma-Aldrich, USA) has been added and pH was adjusted to 7.4.
LC-MS was performed on a setup consisting of Waters Acquity UPLC system and Maxis 4G from Bruker Daltonics. […] Gradient: Linear 5%-70% mobile phase B during 8 min at 0.3 ml/min. MS was conducted in positive ionisation mode by electrospray ionisation from m/z ionisation mode and scan from m/z 300-1800.
The reactions were terminated by addition of 6 volumes of ethanol containing 1% (v/v) TFA (Biosolve BV, The Netherlands) and internal standard. The samples were analysed by LC-MS for the respective non-degraded peptide. Data was plotted according to 1st order kinetics (by GraphPad Prism) and the half-lives (T1/2) were calculated by the software and reported in minutes.

[4] abbreviates: high HSA (2.0% (w/v) final assay concentration), read-out: GLP-1 receptor binding High HSA IC50.
The mark [5] stands for this setting: low HSA (max. 0.001% (w/v) final assay concentration), read-out: GLP-1 receptor binding Low HSA IC50.

T1 sequence (P43220 24-463): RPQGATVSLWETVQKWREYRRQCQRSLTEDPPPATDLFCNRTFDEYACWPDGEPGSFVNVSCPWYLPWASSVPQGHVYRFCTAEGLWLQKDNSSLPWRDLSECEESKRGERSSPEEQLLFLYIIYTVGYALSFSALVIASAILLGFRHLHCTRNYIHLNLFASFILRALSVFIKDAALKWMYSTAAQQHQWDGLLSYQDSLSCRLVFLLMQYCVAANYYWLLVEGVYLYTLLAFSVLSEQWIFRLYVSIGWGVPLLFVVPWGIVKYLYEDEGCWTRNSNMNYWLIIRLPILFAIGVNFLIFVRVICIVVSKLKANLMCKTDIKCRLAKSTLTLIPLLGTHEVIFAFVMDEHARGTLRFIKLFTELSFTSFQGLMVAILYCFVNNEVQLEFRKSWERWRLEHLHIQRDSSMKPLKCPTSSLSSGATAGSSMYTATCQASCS
T2 sequence (P27487 whole entry, species assumed): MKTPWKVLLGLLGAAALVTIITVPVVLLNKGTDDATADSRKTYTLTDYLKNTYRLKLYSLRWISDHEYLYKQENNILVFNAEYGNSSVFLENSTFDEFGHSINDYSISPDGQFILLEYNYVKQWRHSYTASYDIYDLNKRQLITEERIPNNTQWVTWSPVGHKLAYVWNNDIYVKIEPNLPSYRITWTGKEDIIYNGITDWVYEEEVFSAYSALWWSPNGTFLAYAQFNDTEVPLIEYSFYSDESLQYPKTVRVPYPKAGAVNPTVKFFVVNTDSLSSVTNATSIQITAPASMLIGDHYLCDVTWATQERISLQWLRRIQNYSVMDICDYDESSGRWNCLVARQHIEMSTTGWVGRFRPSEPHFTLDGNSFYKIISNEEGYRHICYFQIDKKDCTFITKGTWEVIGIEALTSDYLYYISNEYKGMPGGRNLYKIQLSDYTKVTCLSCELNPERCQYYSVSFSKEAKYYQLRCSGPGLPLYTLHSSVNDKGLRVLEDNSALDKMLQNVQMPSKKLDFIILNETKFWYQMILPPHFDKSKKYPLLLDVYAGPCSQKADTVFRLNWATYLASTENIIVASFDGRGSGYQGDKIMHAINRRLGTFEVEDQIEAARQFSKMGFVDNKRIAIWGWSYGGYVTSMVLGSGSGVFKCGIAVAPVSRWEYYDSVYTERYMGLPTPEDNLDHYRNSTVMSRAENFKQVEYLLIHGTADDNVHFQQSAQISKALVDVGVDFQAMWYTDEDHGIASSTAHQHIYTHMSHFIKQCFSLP

A word on the IC50: it is the concentration needed to halve the response being measured. What is called EC50 is the concentration giving half of the maximal effect. On to `CC[C@H](C)[C@H](NC(=O)[C@H](Cc1ccccc1)NC(=O)[C@H](CCC(=O)O)NC(=O)[C@H](CCCNC(=N)N)NC(=O)[C@H](C)NC(=O)[C@H](C)NC(=O)[C@H](CCC(N)=O)NC(=O)[C@H](CCC(=O)O)NC(=O)[C@H](CCC(=O)O)NC(=O)[C@H](CC(C)C)NC(=O)[C@H](Cc1ccc(O)cc1)NC(=O)[C@H](CO)NC(=O)[C@H](CO)NC(=O)[C@@H](NC(=O)[C@H](CC(=O)O)NC(=O)[C@H](CO)NC(=O)[C@@H](NC(=O)[C@H](Cc1ccccc1)NC(=O)[C@@H](NC(=O)CNC(=O)[C@H](CCC(=O)O)NC(=O)C(C)(C)NC(=O)[C@@H](N)Cc1c[nH]cn1)[C@@H](C)O)[C@@H](C)O)C(C)C)C(=O)N[C@@H](C)C(=O)N[C@@H](Cc1c[nH]c2ccccc12)C(=O)N[C@@H](CC(C)C)C(=O)N[C@H](C(=O)N[C@@H](CCCNC(=N)N)C(=O)NCC(=O)N[C@@H](CCCNC(=N)N)C(=O)N[C@@H](CCCCNC(=O)[C@H](CCCCNC(=O)COCCOCCNC(=O)COCCOCCNC(=O)COCCOCCNC(=O)COCCOCCNC(=O)COCCOCCNC(=O)COCCOCCNC(=O)CC[C@H](NC(=O)[C@H]1CC[C@H](CNC(=O)CCCCCCCCCCCCCCCCCCC(=O)O)CC1)C(=O)O)NC(=O)COCCOCCNC(=O)COCCOCCNC(=O)COCCOCCNC(=O)COCCOCCNC(=O)COCCOCCNC(=O)COCCOCCNC(=O)CC[C@H](NC(=O)[C@H]1CC[C@H](CNC(=O)CCCCCCCCCCCCCCCCCCC(=O)O)CC1)C(=O)O)C(=O)O)C(C)C` [Comparative 10A], for which the IC50 was 108000 pM in series [1] (setting [4]) and 591 pM in series [1] (setting [5]). Moreover, in series [2], the EC50 was 16.8 pM.

With `CC[C@H](C)[C@H](NC(=O)[C@H](Cc1ccccc1)NC(=O)[C@H](CCC(=O)O)NC(=O)[C@H](CCCNC(=N)N)NC(=O)[C@H](C)NC(=O)[C@H](C)NC(=O)[C@H](CCC(N)=O)NC(=O)[C@H](CCC(=O)O)NC(=O)[C@H](CCC(=O)O)NC(=O)[C@H](CC(C)C)NC(=O)[C@H](Cc1ccc(O)cc1)NC(=O)[C@H](CO)NC(=O)[C@H](CO)NC(=O)[C@@H](NC(=O)[C@H](CC(=O)O)NC(=O)[C@H](CO)NC(=O)[C@@H](NC(=O)[C@H](Cc1ccccc1)NC(=O)[C@@H](NC(=O)CNC(=O)[C@H](CCC(=O)O)NC(=O)C(C)(C)NC(=O)[C@@H](N)Cc1c[nH]cn1)[C@@H](C)O)[C@@H](C)O)C(C)C)C(=O)N[C@@H](C)C(=O)N[C@@H](Cc1c[nH]c2ccccc12)C(=O)N[C@@H](CC(C)C)C(=O)N[C@H](C(=O)N[C@@H](CCCNC(=N)N)C(=O)NCC(=O)N[C@@H](CCCNC(=N)N)C(=O)N[C@@H](CCCCNC(=O)COCCOCCNC(=O)COCCOCCNC(=O)[C@H](CCCCNC(=O)COCCOCCNC(=O)COCCOCCNC(=O)COCCOCCNC(=O)COCCOCCNC(=O)CC[C@H](NC(=O)[C@H]1CC[C@H](CNC(=O)CCCCCCCCCCCCCCCCCCC(=O)O)CC1)C(=O)O)NC(=O)COCCOCCNC(=O)COCCOCCNC(=O)COCCOCCNC(=O)COCCOCCNC(=O)CC[C@H](NC(=O)[C@H]1CC[C@H](CNC(=O)CCCCCCCCCCCCCCCCCCC(=O)O)CC1)C(=O)O)C(=O)O)C(C)C` [Comparative 12A], the IC50 worked out at 42300 pM in series [1] (setting [4]) and 536 pM in series [1] (setting [5]). Further, the EC50 in series [2] is 13.7 pM.

Take `CC[C@H](C)[C@H](NC(=O)[C@H](Cc1ccccc1)NC(=O)[C@H](CCC(=O)O)NC(=O)[C@H](CCCNC(=N)N)NC(=O)[C@H](C)NC(=O)[C@H](C)NC(=O)[C@H](CCC(N)=O)NC(=O)[C@H](CCC(=O)O)NC(=O)[C@H](CCC(=O)O)NC(=O)[C@H](CC(C)C)NC(=O)[C@H](Cc1ccc(O)cc1)NC(=O)[C@H](CO)NC(=O)[C@H](CO)NC(=O)[C@@H](NC(=O)[C@H](CC(=O)O)NC(=O)[C@H](CO)NC(=O)[C@@H](NC(=O)[C@H](Cc1ccccc1)NC(=O)[C@@H](NC(=O)CNC(=O)[C@H](CCC(=O)O)NC(=O)C(C)(C)NC(=O)[C@@H](N)Cc1c[nH]cn1)[C@@H](C)O)[C@@H](C)O)C(C)C)C(=O)N[C@@H](C)C(=O)N[C@@H](Cc1c[nH]c2ccccc12)C(=O)N[C@@H](CC(C)C)C(=O)N[C@H](C(=O)N[C@@H](CCCNC(=N)N)C(=O)NCC(=O)N[C@@H](CCCNC(=N)N)C(=O)N[C@@H](CCCCNC(=O)COCCOCCNC(=O)COCCOCCNC(=O)CN(CCCNC(=O)COCCOCCNC(=O)COCCOCCNC(=O)COCCOCCNC(=O)COCCOCCNC(=O)CC[C@H](NC(=O)[C@H]1CC[C@H](CNC(=O)CCCCCCCCCCCCCCCCCCC(=O)O)CC1)C(=O)O)CCCNC(=O)COCCOCCNC(=O)COCCOCCNC(=O)COCCOCCNC(=O)COCCOCCNC(=O)CC[C@H](NC(=O)[C@H]1CC[C@H](CNC(=O)CCCCCCCCCCCCCCCCCCC(=O)O)CC1)C(=O)O)C(=O)O)C(C)C` [Comparative 13A]: the IC50 was found to be 35400 pM in series [1] (setting [4]) and 383 pM in series [1] (setting [5]). For the same compound, the EC50 in series [2] came to 14.7 pM.

Take `CC[C@H](C)[C@H](NC(=O)[C@H](Cc1ccccc1)NC(=O)[C@H](CCC(=O)O)NC(=O)[C@H](CCCNC(=N)N)NC(=O)[C@H](C)NC(=O)[C@H](C)NC(=O)[C@H](CCC(N)=O)NC(=O)[C@H](CCC(=O)O)NC(=O)[C@H](CCC(=O)O)NC(=O)[C@H](CC(C)C)NC(=O)[C@H](Cc1ccc(O)cc1)NC(=O)[C@H](CO)NC(=O)[C@H](CO)NC(=O)[C@@H](NC(=O)[C@H](CC(=O)O)NC(=O)[C@H](CO)NC(=O)[C@@H](NC(=O)[C@H](Cc1ccccc1)NC(=O)[C@@H](NC(=O)CNC(=O)[C@H](CCC(=O)O)NC(=O)[C@H](Cc1c[nH]c2ccccc12)NC(=O)[C@@H](N)Cc1c[nH]cn1)[C@@H](C)O)[C@@H](C)O)C(C)C)C(=O)N[C@@H](C)C(=O)N[C@@H](Cc1c[nH]c2ccccc12)C(=O)N[C@@H](CC(C)C)C(=O)N[C@H](C(=O)N[C@@H](CCCNC(=N)N)C(=O)NCC(=O)N[C@@H](CCCCNC(=O)COCCOCCNC(=O)COCCOCCNC(=O)COCCOCCNC(=O)COCCOCCNC(=O)CC[C@H](NC(=O)CCCCCCCCCCCCC(=O)O)C(=O)O)C(=O)N[C@@H](CCCCNC(=O)COCCOCCNC(=O)COCCOCCNC(=O)COCCOCCNC(=O)COCCOCCNC(=O)CC[C@H](NC(=O)CCCCCCCCCCCCC(=O)O)C(=O)O)C(=O)O)C(C)C` [Example 7] (H-HWEGTFTSDVSSYLEEQAAREFIAWLVRGK([AEEA-AEEA-AEEA-AEEA-γGlu-C14 diacid])K([AEEA-AEEA-AEEA-AEEA-γGlu-C14 diacid])-OH; N-terminus and C-terminus assumed): the IC50 in series [1] (setting [4]) was 71000 pM. In series [2], the EC50 worked out at 5.6 pM.

In the case of `CC[C@H](C)[C@H](NC(=O)[C@H](Cc1ccccc1)NC(=O)[C@H](CCC(=O)O)NC(=O)[C@H](CCCCN)NC(=O)[C@H](C)NC(=O)[C@H](C)NC(=O)[C@H](CCC(N)=O)NC(=O)CNC(=O)[C@H](CCC(=O)O)NC(=O)[C@H](CC(C)C)NC(=O)[C@H](Cc1ccc(O)cc1)NC(=O)[C@H](CO)NC(=O)[C@H](CO)NC(=O)[C@@H](NC(=O)[C@H](CC(=O)O)NC(=O)[C@H](CO)NC(=O)[C@@H](NC(=O)[C@H](Cc1ccccc1)NC(=O)[C@@H](NC(=O)CNC(=O)[C@H](CCC(=O)O)NC(=O)[C@H](Cc1c[nH]c2ccccc12)NC(=O)[C@@H](N)Cc1c[nH]cn1)[C@@H](C)O)[C@@H](C)O)C(C)C)C(=O)N[C@@H](C)C(=O)N[C@@H](Cc1c[nH]c2ccccc12)C(=O)N[C@@H](CC(C)C)C(=O)N[C@H](C(=O)N[C@@H](CCCCN)C(=O)NCC(=O)N[C@@H](CCCNC(=N)N)C(=O)NCC(=O)O)C(C)C` [Example D, [Trp8]-GLP-1-(7-37)-Peptide], the “degradation by DPP-IV in vitro (in words)” value in series [3] is “no degradation at all was observed”.
